Experimental data reported in ChEMBL document CHEMBL6071160, “Identification of a novel 10-hydroxyevodiamine prodrug as a potent topoisomerase inhibitor with improved aqueous solubility for treatment of hepatocellular carcinoma” (Eur J Med Chem, 2024).
Values after ≈ are worked out from the molar mass of the structure shown.

Key:
[1] = system: Huh-7; assay: Antiproliferative activity against human Huh-7 cells assessed as inhibition of cell proliferation incubated for 72 hrs by MTT assay; assay type: functional, cell-based; settings: Huh-7, 72 h
[2] = system: HepG2; assay: Antiproliferative activity against human HepG2 cells assessed as inhibition of cell proliferation incubated for 72 hrs by MTT assay; assay type: functional, cell-based; settings: HepG2, 72 h
[3] = system: SK-HEP1; assay: Antiproliferative activity against human SK-HEP1 cells assessed as inhibition of cell proliferation incubated for 72 hrs by MTT assay; assay type: functional, cell-based; settings: SK-HEP1, 72 h
[4] = Aqueous solubility of the compound […] measured after 72 hrs in shaking by HPLC analysis; assay type: physicochemical
[5] = system: SMMC-7721; assay: Antiproliferative activity against human SMMC-7721 cells assessed as inhibition of cell proliferation incubated for 72 hrs by MTT assay; assay type: functional, cell-based; settings: SMMC-7721, 72 h
[6] = Antiproliferative activity against human Doxorubicin-resistant SMMC-7721 cell assessed as inhibition of cell proliferation incubated for 72 hrs by MTT assay; assay type: functional, cell-based; settings: SMMC-7721, 72 h
[7] = Drug resistance index, ratio of IC50 for antiproliferative activity against human SMMC-7721 cells to antiproliferative activity against human Doxorubicin-resistant SMMC-7721 cells; assay type: functional
[8] = system: Huh-7; assay: Induction of cell cycle arrest in human Huh-7 cells assessed as accumulation of cells at G1 phase 80 nM measured after 24 hrs by flow cytometric assay (reference value: 63.01%); assay type: functional
[9] = system: Huh-7; assay: Induction of cell cycle arrest in human Huh-7 cells assessed as accumulation of cells at G2 phase 80 nM measured after 24 hrs by flow cytometric assay (reference value: 13.66%); assay type: functional
[10] = system: Huh-7; assay: Induction of cell cycle arrest in human Huh-7 cells assessed as accumulation of cells at S phase 80 nM measured after 24 hrs by flow cytometric assay (reference value: 23.33%); assay type: functional
[11] = system: SK-HEP1; assay: Induction of cell cycle arrest in human SK-HEP1 cells assessed as accumulation of cells at G1 phase 80 nM measured after 24 hrs by flow cytometric assay (reference value: 47.55%); assay type: functional
[12] = system: SK-HEP1; assay: Induction of cell cycle arrest in human SK-HEP1 cells assessed as accumulation of cells at G2 phase 80 nM measured after 24 hrs by flow cytometric assay (reference value: 22.41%); assay type: functional
[13] = system: SK-HEP1; assay: Induction of cell cycle arrest in human SK-HEP1 cells assessed as accumulation of cells at S phase 80 nM measured after 24 hrs by flow cytometric assay (reference value: 30.04%); assay type: functional
[14] = system: Huh-7; assay: Induction of apoptosis in human Huh-7 cells assessed as viable cells at 80 nM measured after 24 hrs by Annexin-V-FITC/PI analysis (reference value: 97.46%); assay type: functional; settings: read-out: Activity
[15] = system: Huh-7; assay: Induction of apoptosis in human Huh-7 cells assessed as early apoptotic cells at 80 nM measured after 24 hrs by Annexin-V-FITC/PI analysis (reference value: 1.04%); assay type: functional
[16] = system: Huh-7; assay: Induction of apoptosis in human Huh-7 cells assessed as late apoptotic cells at 80 nM measured after 24 hrs by Annexin-V-FITC/PI analysis (reference value: 1.23%); assay type: functional
[17] = system: Huh-7; assay: Induction of apoptosis in human Huh-7 cells assessed as necrotic cells at 80 nM measured after 24 hrs by Annexin-V-FITC/PI analysis (reference value: 0.27%); assay type: functional
[18] = system: SK-HEP1; assay: Induction of apoptosis in human SK-HEP1 cells assessed as viable cells at 80 nM measured after 24 hrs by Annexin-V-FITC/PI analysis (reference value: 97.20%); assay type: functional; settings: read-out: Activity
[19] = system: SK-HEP1; assay: Induction of apoptosis in human SK-HEP1 cells assessed as early apoptotic cells at 80 nM measured after 24 hrs by Annexin-V-FITC/PI analysis (reference value: 1.45%); assay type: functional
[20] = system: SK-HEP1; assay: Induction of apoptosis in human SK-HEP1 cells assessed as late apoptotic cells at 80 nM measured after 24 hrs by Annexin-V-FITC/PI analysis (reference value: 0.64%); assay type: functional
[21] = system: SK-HEP1; assay: Induction of apoptosis in human SK-HEP1 cells assessed as necrotic cells at 80 nM measured after 24 hrs by Annexin-V-FITC/PI analysis (reference value: 0.70%); assay type: functional
[22] = system: Huh-7; assay: Induction of apoptosis in human Huh-7 cells assessed as loss of mitochondrial membrane potential by measuring JC-1 stained cells at 80 nM measured after 24 hrs by JC-1 staining based flow cytometry (reference value: 2.27%); assay type: functional
[23] = system: SK-HEP1; assay: Induction of apoptosis in human SK-HEP1 cells assessed as loss of mitochondrial membrane potential by measuring JC-1 stained cells at 80 nM measured after 24 hrs by JC-1 staining based flow cytometry (reference value: 0.49%); assay type: functional
[24] = system: Huh-7; assay: Induction of apoptosis in human Huh-7 cells assessed as ROS generation by measuring DCFH2-DA stained cells at 80 nM measured after 24 hrs […] (reference value: 0.45%); assay type: functional
[25] = system: SK-HEP1; assay: Induction of apoptosis in human SK-HEP1 cells assessed as ROS generation by measuring DCFH2-DA stained cells at 80 nM measured after 24 hrs […] (reference value: 0.14%); assay type: functional

Compound	IC50 [1] [µM]	IC50 [2] [µM]	IC50 [3] [µM]	solubility thermodynamic at 72 h [4] [µg/mL]	further results
CN(C)C(=O)Oc1ccc2[nH]c3c(c2c1)CCN1C(=O)c2cc(F)cc(F)c2N(c2cccc(F)c2)C31 (stereo not drawn)	> 1.62	> 1.62	> 1.62	3.1 (≈ 6.12 µM)	
O=C1c2cc(F)cc(F)c2N(c2cccc(F)c2)C2c3[nH]c4ccc(OCCN5CCNCC5)cc4c3CCN12 (stereo not drawn)	> 1.62	> 1.62	> 1.62	50.5 (≈ 92.2 µM)	
O=C(O)COc1ccc2[nH]c3c(c2c1)CCN1C(=O)c2cc(F)cc(F)c2N(c2cccc(F)c2)C31 (stereo not drawn)	> 1.62	> 1.62	> 1.62	72.5 (≈ 147 µM)	
O=C1c2cc(F)cc(F)c2N(c2cccc(F)c2)C2c3[nH]c4ccc(OCCN5CCCCC5)cc4c3CCN12 (stereo not drawn)	> 1.62	> 1.62	> 1.62	34.3 (≈ 62.8 µM)	
O=C(Oc1ccc2[nH]c3c(c2c1)CCN1C(=O)c2cc(F)cc(F)c2N(c2cccc(F)c2)C31)N1CCC(N2CCCCC2)CC1 (stereo not drawn)	> 1.62	> 1.62	> 1.62	34.5 (≈ 54.8 µM)	
COCCCOc1ccc2[nH]c3c(c2c1)CCN1C(=O)c2cc(F)cc(F)c2N(c2cccc(F)c2)C31 (stereo not drawn)	> 1.62	> 1.62	> 1.62	71.4 (≈ 141 µM)	
COP(=O)(OC)Oc1ccc2[nH]c3c(c2c1)CCN1C(=O)c2cc(F)cc(F)c2N(c2cccc(F)c2)C31 (stereo not drawn)	> 1.62	> 1.62	> 1.62	1.9 (≈ 3.5 µM)	
O=C1c2cc(F)cc(F)c2N(c2cccc(F)c2)C2c3[nH]c4ccc(OCCCN5CCCCC5)cc4c3CCN12 (stereo not drawn)	> 1.62	> 1.62	> 1.62	100 (≈ 179 µM)	
CNC(=O)c1cc(Oc2ccc(NC(=O)Nc3ccc(Cl)c(C(F)(F)F)c3)cc2)ccn1 [SORAFENIB]					IC50 [5]: 3.46 µM; IC50 [6]: 5.12 µM
O=C(Oc1ccc2[nH]c3c(c2c1)CCN1C(=O)c2cc(F)cc(F)c2N(c2cccc(F)c2)C31)N1CCNCC1 (stereo not drawn)	> 1.62	> 1.62	> 1.62	1.5 (≈ 2.74 µM)	
O=C1c2cc(F)cc(F)c2N(c2cccc(F)c2)C2c3[nH]c4ccc(OCCN5CCOCC5)cc4c3CCN12 (stereo not drawn)	> 1.62	> 1.62	> 1.62	9.5 (≈ 17.3 µM)	
CCN(CC)C(=O)Oc1ccc2[nH]c3c(c2c1)CCN1C(=O)c2cc(F)cc(F)c2N(c2cccc(F)c2)C31 (stereo not drawn)	> 1.62	> 1.62	> 1.62	5.5 (≈ 10.3 µM)	
COc1cccc2c1C(=O)c1c(O)c3c(c(O)c1C2=O)C[C@@](O)(C(=O)CO)C[C@@H]3O[C@H]1C[C@H](N)[C@H](O)[C@H](C)O1 [DOXORUBICIN]					IC50 [5]: 0.15 µM; IC50 [6]: 1.35 µM; Ratio [7]: 9
O=C1c2cc(F)cc(F)c2N(c2cccc(F)c2)C2c3[nH]c4ccc(OCCCN5CCCC5)cc4c3CCN12 (stereo not drawn)	> 1.62	> 1.62	> 1.62	61.1 (≈ 112 µM)	

Further lines, with some results ahead:

IC50 [1] [µM]	IC50 [2] [µM]	IC50 [3] [µM]	solubility thermodynamic at 72 h [4] [µg/mL]	Compound	further results
> 1.62	> 1.62	> 1.62	11.6 (≈ 20.6 µM)	O=C1c2cc(F)cc(F)c2N(c2cccc(F)c2)C2c3[nH]c4ccc(OCCCN5CCOCC5)cc4c3CCN12 (stereo not drawn)	
0.53	1.24	0.92	2.5 (≈ 4.93 µM)	CC(C)(O)COc1ccc2[nH]c3c(c2c1)CCN1C(=O)c2cc(F)cc(F)c2N(c2cccc(F)c2)C31 (stereo not drawn)	
1.53	1.28	1.58	1.3 (≈ 2.63 µM)	COCCOc1ccc2[nH]c3c(c2c1)CCN1C(=O)c2cc(F)cc(F)c2N(c2cccc(F)c2)C31 (stereo not drawn)	
0.02	0.07	0.09	6.1 (≈ 11.4 µM)	O=C(O)CCC(=O)Oc1ccc2[nH]c3c(c2c1)CCN1C(=O)c2cc(F)cc(F)c2N(c2cccc(F)c2)C31 (stereo not drawn)	
0.04	0.04	0.04	11.8 (≈ 22.1 µM)	CN(C)CCC(=O)Oc1ccc2[nH]c3c(c2c1)CCN1C(=O)c2cc(F)cc(F)c2N(c2cccc(F)c2)C31 (stereo not drawn)	
0.07	0.18	0.04	0.7 (≈ 1.42 µM)	O=C(CO)Oc1ccc2[nH]c3c(c2c1)CCN1C(=O)c2cc(F)cc(F)c2N(c2cccc(F)c2)C31 (stereo not drawn)	
> 1.62	> 1.62	> 1.62	103 (≈ 183 µM)	CN1CCN(CCOc2ccc3[nH]c4c(c3c2)CCN2C(=O)c3cc(F)cc(F)c3N(c3cccc(F)c3)C42)CC1 (stereo not drawn)	
0.04	0.08	0.03	10.1 (≈ 18 µM)	O=C(CCN1CCCC1)Oc1ccc2[nH]c3c(c2c1)CCN1C(=O)c2cc(F)cc(F)c2N(c2cccc(F)c2)C31 (stereo not drawn)	
0.04	0.1	0.03	8.7 (≈ 16.7 µM)	CN(C)CC(=O)Oc1ccc2[nH]c3c(c2c1)CCN1C(=O)c2cc(F)cc(F)c2N(c2cccc(F)c2)C31 (stereo not drawn)	
0.43	0.8	1.38	53 (≈ 105 µM)	CN(C)CCOc1ccc2[nH]c3c(c2c1)CCN1C(=O)c2cc(F)cc(F)c2N(c2cccc(F)c2)C31 (stereo not drawn)	
0.12	0.28	0.2	9.5 (≈ 19.8 µM)	O=C1c2cc(F)cc(F)c2N(c2cccc(F)c2)C2c3[nH]c4ccc(OCCO)cc4c3CCN12 (stereo not drawn)	
3.75	1.04	1.51		CC[C@@]1(O)C(=O)OCc2c1cc1n(c2=O)Cc2cc3c(CN(C)C)c(O)ccc3nc2-1 [TOPOTECAN]	
0.04	0.09	0.04	3 (≈ 5.91 µM)	COCC(=O)Oc1ccc2[nH]c3c(c2c1)CCN1C(=O)c2cc(F)cc(F)c2N(c2cccc(F)c2)C31 (stereo not drawn)	
0.19	0.51	0.73	12.2 (≈ 24.7 µM)	CC(O)COc1ccc2[nH]c3c(c2c1)CCN1C(=O)c2cc(F)cc(F)c2N(c2cccc(F)c2)C31 (stereo not drawn)	
0.05			1 (≈ 2.3 µM)	O=C1c2cc(F)cc(F)c2N(c2cccc(F)c2)C2c3[nH]c4ccc(O)cc4c3CCN12 (stereo not drawn)	Activity [8]: 5.79%; Activity [9]: 86.71%; Activity [10]: 7.51%; Activity [11]: 8.18%; Activity [12]: 66.31%; Activity [13]: 25.51%; viability at 0.08 µM [14]: 81.1%; Activity [15]: 6.84%; Activity [16]: 10.46%; Activity [17]: 1.63%; viability at 0.08 µM [18]: 66.2%; Activity [19]: 22.1%; Activity [20]: 10.49%; Activity [21]: 1.19%; Activity [22]: 10.62%; Activity [23]: 10.75%; Activity [24]: 31.15%; Activity [25]: 61.44%
